Key:
[1] = tested on: NCI-H460; experiment: NCI sixty human tumor cell line screen, Non-small-cell-lung panel; type: cell-based; conditions: NCI protocol
Procedure: (§1) The in vitro anticancer activity studies for these N-((1-benzyl-1H-1,2,3-triazol-4-yl)methyl) arylamide analogues were carried out at the National Cancer Institute, USA.
(§2) The N-((1-benzyl-1H-1,2,3-triazol-4-yl)methyl)arylamide analogues have been tested at NCI, USA, against sixty human tumor cell lines derived from nine cancer types (leukemia, non-small cell lung cancer, colon cancer, CNS cancer, melanoma cancer, ovarian cancer, renal cancer, prostate cancer and breast cancer). For these compounds results are expressed as growth inhibition (GI50) values as per NCI protocol.

[2] = tested on: NCI-H226; experiment: as above; type: cell-based; conditions: NCI protocol
Procedure: as §1, §2

[3] = tested on: HOP-62; experiment: as above; type: cell-based; conditions: HOP-62, Non-small-cell-lung, NCI protocol
Procedure: as §1, §2

[4] = tested on: EKVX; experiment: as above; type: cell-based; conditions: NCI protocol
Procedure: as §1, §2

[5] = tested on: NCI-H522; experiment: as above; type: cell-based; conditions: NCI protocol
Procedure: as §1, §2

[6] = tested on: A549/ATCC; experiment: as above; type: cell-based; conditions: NCI protocol
Procedure: as §1, §2

[7] = tested on: M14; experiment: NCI sixty human tumor cell line screen, Melanoma panel; type: cell-based; conditions: NCI protocol
Procedure: as §1, §2

[8] = tested on: UACC-62; experiment: as above; type: cell-based; conditions: UACC-62, Melanoma, NCI protocol
Procedure: as §1, §2

[9] = tested on: LOX IMVI; experiment: as above; type: cell-based; conditions: NCI protocol
Procedure: as §1, §2

[10] = tested on: SK-MEL-28; experiment: as above; type: cell-based; conditions: SK-MEL-28, Melanoma, NCI protocol
Procedure: as §1, §2

[11] = tested on: SK-MEL-2; experiment: as above; type: cell-based; conditions: SK-MEL-2, Melanoma, NCI protocol
Procedure: as §1, §2

[12] = tested on: SK-MEL-5; experiment: as above; type: cell-based; conditions: SK-MEL-5, Melanoma, NCI protocol
Procedure: as §1, §2

[13] = tested on: MDA-MB-435; experiment: as above; type: cell-based; conditions: MDA-MB-435, Melanoma, NCI protocol
Procedure: as §1, §2

[14] = tested on: SK-OV-3; experiment: NCI sixty human tumor cell line screen, Ovarian panel; type: cell-based; conditions: SK-OV-3, Ovarian, NCI protocol
Procedure: as §1, §2

[15] = tested on: OVCAR-4; experiment: as above; type: cell-based; conditions: OVCAR-4, Ovarian, NCI protocol
Procedure: as §1, §2

[16] = tested on: NCI/ADR-RES; experiment: as above; type: cell-based; conditions: NCI protocol
Procedure: as §1, §2

[17] = tested on: OVCAR-8; experiment: as above; type: cell-based; conditions: OVCAR-8, Ovarian, NCI protocol
Procedure: as §1, §2

[18] = tested on: OVCAR-3; experiment: as above; type: cell-based; conditions: OVCAR-3, Ovarian, NCI protocol
Procedure: as §1, §2

[19] = tested on: MDA-MB-468; experiment: NCI sixty human tumor cell line screen, Breast panel; type: cell-based; conditions: MDA-MB-468, Breast, NCI protocol
Procedure: as §1, §2

[20] = tested on: BT-549; experiment: as above; type: cell-based; conditions: BT-549, Breast, NCI protocol
Procedure: as §1, §2

[21] = tested on: MDA-MB-31/ATCC; experiment: as above; type: cell-based; conditions: NCI protocol
Procedure: as §1, §2

[22] = tested on: T-47D; experiment: as above; type: cell-based; conditions: T47D, NCI protocol
Procedure: as §1, §2

[23] = tested on: PC-3; experiment: NCI sixty human tumor cell line screen, Prostate panel; type: cell-based; conditions: PC-3, Prostate, NCI protocol
Procedure: as §1, §2

[24] = tested on: DU-145; experiment: as above; type: cell-based; conditions: DU-145, Prostate, NCI protocol
Procedure: as §1, §2

[25] = tested on: SF-539; experiment: NCI sixty human tumor cell line screen, CNS panel; type: cell-based; conditions: SF-539, CNS, NCI protocol
Procedure: as §1, §2

[26] = tested on: SF-268; experiment: NCI sixty human tumor cell line screen, CNS panel; type: cell-based; conditions: SF-268, CNS, NCI protocol
Procedure: as §1, §2

[27] = tested on: SNB-75; experiment: NCI sixty human tumor cell line screen, CNS panel; type: cell-based; conditions: SNB-75, CNS, NCI protocol
Procedure: as §1, §2

[28] = tested on: U251; experiment: NCI sixty human tumor cell line screen, CNS panel; type: cell-based; conditions: U-251, NCI protocol
Procedure: as §1, §2

[29] = tested on: SF-295; experiment: NCI sixty human tumor cell line screen, CNS panel; type: cell-based; conditions: SF-295, CNS, NCI protocol
Procedure: as §1, §2

[30] = tested on: SNB-19; experiment: NCI sixty human tumor cell line screen, CNS panel; type: cell-based; conditions: SNB-19, CNS, NCI protocol
Procedure: as §1, §2

[31] = tested on: TK-10; experiment: NCI sixty human tumor cell line screen, Renal panel; type: cell-based; conditions: TK-10, Renal, NCI protocol
Procedure: as §1, §2

[32] = tested on: ACHN; experiment: as above; type: cell-based; conditions: NCI protocol
Procedure: as §1, §2

[33] = tested on: 786-0; experiment: as above; type: cell-based; conditions: 786-0, Renal, NCI protocol
Procedure: as §1, §2

[34] = tested on: RXF 393; experiment: as above; type: cell-based; conditions: RXF 393, Renal, NCI protocol
Procedure: as §1, §2

[35] = tested on: CAKI-1; experiment: as above; type: cell-based; conditions: CAKI-1, Renal, NCI protocol
Procedure: as §1, §2

[36] = tested on: SN12C; experiment: as above; type: cell-based; conditions: NCI protocol
Procedure: as §1, §2

[37] = tested on: UO-31; experiment: as above; type: cell-based; conditions: UO-31, Renal, NCI protocol
Procedure: as §1, §2

[38] = tested on: A498; experiment: as above; type: cell-based; conditions: NCI protocol
Procedure: as §1, §2

[39] = tested on: COLO 205; experiment: NCI sixty human tumor cell line screen, Colon panel; type: cell-based; conditions: COLO 205, Colon, NCI protocol
Procedure: as §1, §2

[40] = tested on: SW-620; experiment: as above; type: cell-based; conditions: SW-620, Colon, NCI protocol
Procedure: as §1, §2

[41] = tested on: HCT-116; experiment: as above; type: cell-based; conditions: HCT-116, Colon, NCI protocol
Procedure: as §1, §2

[42] = tested on: KM12; experiment: as above; type: cell-based; conditions: NCI protocol
Procedure: as §1, §2

[43] = tested on: HT29; experiment: as above; type: cell-based; conditions: HT-29, NCI protocol
Procedure: as §1, §2

Structure (SMILES): O=C(NCc1cn(Cc2cccc(Oc3ccccc3)c2)nn1)c1cccnc1Nc1ccc(F)cc1 [Compound 1b, 2-(4-Fluorophenylamino)-N-((1-(3-phenoxybenzyl)-1H-1,2,3-triazol4-yl)methyl)nicotinamide]
- GI50 [1]: 5.25 µM
- GI50 [2]: 38.6 µM
- GI50 [3]: 60.2 µM
- GI50 [4]: 25.3 µM
- GI50 [5]: 10.8 µM
- GI50 [6]: 6.11 µM
- GI50 [7]: 13.7 µM
- GI50 [8]: 6.51 µM
- GI50 [9]: 61.3 µM
- GI50 [10]: 7.98 µM
- GI50 [11]: 34.2 µM
- GI50 [12]: 4.48 µM
- GI50 [13]: 2.79 µM
- GI50 [14]: 3.11 µM
- GI50 [15]: 5.19 µM
- GI50 [16]: 2.12 µM
- GI50 [17]: 3.72 µM
- GI50 [18]: 2.98 µM
- GI50 [19]: 2.32 µM
- GI50 [20]: 4.58 µM
- GI50 [21]: 3.09 µM
- GI50 [22]: 4.03 µM
- GI50 [23]: 3.86 µM
- GI50 [24]: 3.76 µM
- melting point: 160 to 162 °C
- GI50 [25]: 15.1 µM
- GI50 [26]: 2.1 µM
- GI50 [27]: 3.81 µM
- GI50 [28]: 7.12 µM
- GI50 [29]: 5.66 µM
- GI50 [30]: 20.7 µM
- GI50 [31]: 4.59 µM
- GI50 [32]: 4.79 µM
- GI50 [33]: 5.59 µM
- GI50 [34]: 2.59 µM
- GI50 [35]: 3.41 µM
- GI50 [36]: 4.75 µM
- GI50 [37]: 3 µM
- GI50 [38]: 2.35 µM
- GI50 [39]: 6.22 µM
- GI50 [40]: 6.58 µM
- GI50 [41]: 5.02 µM
- GI50 [42]: 5.61 µM
- GI50 [43]: 5.6 µM

From patent US9309225B2, “N-((1-benzyl-1H-1,2,3-triazol-4-yl)methyl)arylamide compounds as potential anticancer agents and a process for the preparation thereof” (COUNCIL OF SCIENTIFIC & INDUSTRIAL RESEARCH, priority 2013, dated 2016)
